Measured values taken from patent publication US9701709B2 (REATA PHARMACEUTICALS, INC., priority 2012, dated 2017).
Marks after values point to notes of the source that are not given here.

Key:
Format in all cases: physicochemical
[1] = Approximate solubility by manual dilution; details: r.t.
Experimental: The approximate solubility of the PP415-P1 starting material was measured in twelve solvents and four solvent mixtures at r.t. by manual dilution combined with visual observation (Table 10). Due to the experimental error inherent in this method, the solubility values are intended to be regarded as rough estimates and are to be used solely for the design of crystallization experiments. All solvent mixtures are listed as ratios by volume (v/v).
Approximate Solubility Determination: Approximate solubilities were determined by a stepwise dilution of a suspension of about 10 mg of substance in 0.05 mL of solvent. […] Due to the experimental error inherent in this method, the solubility values are intended to be regarded as rough estimates and are to be used solely for the design of crystallization experiments.

[2] = Chemical stability in solvents and aqueous surfactant media (HPLC); details: diluent 0.1% formic acid in MeCN, within ~24 hours; start 99.9%
Experimental: The chemical stability of the amorphous form was investigated in different solvents over the course of seven days.
Solutions/suspensions with a concentration of 1 mg/mL were prepared in four organic solvents (acetone, MeOH, MeCN, EtOAc) and three aqueous surfactant media (1% aq. SDS, 1% aq. Tween 80, 1% aq. CTAB).
Four separate solutions/suspensions were prepared for each solvent, equilibrated for 6 h, 24 h, 2 d, and 7 d and subsequently analyzed by HPLC.
Due to this effect, the samples measured towards the end of the sequence (set up in the following order: 7 d, 2 d, 24 h, 6 h), might be affected and the obtained area-% might be underestimated.
Four samples of 1.0 mg of the PP415-P1 material in 1.0 mL of the respective solvent were prepared. The resulting suspensions/solutions were equilibrated in a temperature-controlled Eppendorf Thermomixer Comfort shaker for 7 d, 2 d, 24 h, and 6 h at 25° C. at a shaking rate of 500 rpm. If necessary, the solid phase was separated by filter centrifugation (0.5-μm PVDF membrane). The filtrates were diluted in the diluent (0.1% formic acid in MeCN) to concentrations≦0.2 mg/mL (unknown and likely lower for suspensions) and examined using the HPLC method given in Table 29. As reference, the PP415-P1 material was diluted in the diluent to a concentration of 0.25 mg/mL and added to the beginning and end of the HPLC sequence.

[3] = Storage stability of the amorphous form (PXRD)
Experimental: To learn more about its fundamental properties and physical stability, the amorphous form of 63415 was stressed by storage at elevated temperatures and relative humidities.
Samples of the amorphous form (the PP415-P1 starting material) were stored open at 25° C./˜62% r.h. (over saturated aqueous solution of NH4NO3) and 40° C./˜75% r.h. (over saturated aqueous solution of NaCl) and closed at 60° C. and 80° C. (Table 12). At time points 0 w, 1 w, 2 w, and 4 w the samples were examined by PXRD and compared to the starting material, PP415-P1.

[4] = Dynamic vapor sorption (hygroscopicity)
Experimental: Projekt Messtechnik Sorptions Prüfsystem SPS 11-100n or Surface Measurement Systems DVS-1. The sample was placed on an aluminum or platinum holder on top of a microbalance and allowed to equilibrate for 2 h at 50% r.h. before starting the pre-defined humidity program: • (1) 50→0% r.h. (5%/h); 5 h at 0% r.h. • (2) 0→95% r.h. (5%/h); 5 h at 95% r.h. • (3) 95→50% r.h. (5%/h); 2 h at 50% r.h.

[5] = Polymorph screen: crystallization and drying experiments (FT-Raman, PXRD, TG-FTIR, DSC)
Experimental: A preformulation and polymorphism study was performed for compound 63415. […] A total of 30 crystallization experiments, including phase equilibrations, drying experiments and other techniques, were carried out. All obtained solids were characterized by FT-Raman spectroscopy. All new forms were characterized by PXRD and TG-FTIR, and optionally by DSC and DVS.
All obtained materials were characterized by FT-Raman spectroscopy; selected samples were also characterized by PXRD.
Suspension equilibration experiments were carried out in one solvent and eleven solvent mixtures (Table 13). Suspensions of ˜100 mg of PP415-P1 in 0.2-2.0 mL of the selected solvents were prepared and shaken for 4-15 days at 22-24° C. The solids were recovered and characterized by FT-Raman spectroscopy; most were characterized also by PXRD.
Hot solutions of PP415-P1 were prepared in one solvent and four solvent mixtures (Table 14). […] In two cases (-P22, -P23) no solid precipitated, even after storage at 4-5° C. for two days. Here, the solvent was evaporated under N2 flow at r.t. The solids were recovered and characterized by FT-Raman spectroscopy and for those with spectra different from the amorphous starting material, FT-Raman class 1, also by PXRD.
Clear solutions of PP415-P1 were prepared in three solvent mixtures (Table 15). The solvents were then slowly evaporated at r.t. under ambient conditions. However, in two of the three experiments (-P15 and -P17) white solid precipitated before evaporation began. The obtained solids were examined by FT-Raman spectroscopy and PXRD.
At least one sample of each class was dried under vacuum with the aim to desolvate the solvates and to obtain non-solvated crystalline forms of 63415 (Table 16). The dried materials were characterized further by FT-Raman, PXRD, and TG-FTIR.
Bruker RFS100 with OPUS 6.5 software; Nd:YAG 1064-nm excitation, Ge detector, 3500-100 cm^−1 range; typical measurement conditions: 100-300 mW nominal laser power, 64-128 scans, 2 cm^−1 resolution.
Stoe Stadi P; Mythen1K Detector; Cu—Kα radiation; standard measurement conditions: transmission; 40 kV and 40 mA tube power; curved Ge monochromator; 0.02°2θ step size, 12 s or 60 s step time, 1.5-50.5°2θ or 1.0-55°2θ scanning range; detector mode: step scan; 1°2θ or 6°2θ detector step; standard sample preparation: 10 to 20 mg sample was placed between two acetate foils; sample holder: Stoe transmission sample holder; the sample was rotated during the measurement.
Netzsch Thermo-Microbalance TG 209 with Bruker FT-IR Spectrometer Vector 22; aluminum crucible (with microhole), N2 atmosphere, 10 K/min heating rate, 25-250° C. or 25-350° C. range.
Perkin Elmer DSC 7; gold crucibles (closed or with microhole), sample filled in an N2 environment, 10 K/min heating rate, −50 to 250° C. or 350° C. range, at times quench cooling (at −200 K/min) to −50° C. between scans.

## CC1(C)CC[C@]2(NC(=O)C(C)(F)F)CC[C@]3(C)[C@H](C(=O)C=C4[C@@]5(C)C=C(C#N)C(=O)C(C)(C)[C@@H]5CC[C@]43C)[C@@H]2C1 [PP415-P1]
[1]; DCM
  Solubility S: S > 200 mg/mL
[1]; DEE, dissolved completely overnight
  Solubility S: S > 1^d mg/mL
[1]; DMF
  Solubility S: S > 210 mg/mL
[1]; EtOAc
  Solubility S: S > 210 mg/mL
[1]; H2O
  Solubility S: S < 1 mg/mL
[1]; MeCN
  Solubility S: S > 230 mg/mL
[1]; MeCN/H2O (2:3)
  Solubility S: S < 1 mg/mL
[1]; MeOH
  Solubility S: S < 210 mg/mL
[1]; acetone
  Solubility S: S > 230 mg/mL
[1]; heptane
  Solubility S: S < 1 mg/mL
[1]; toluene
  Solubility S: S > 200 mg/mL
[1]; toluene/DEE (1:1), precipitation after ~1d
  Solubility S: S > 220 mg/mL
[2]
  area-% of reference sample at end of HPLC sequence, 242 nm: 99.5%
  area-% of reference sample at end of HPLC sequence, 254 nm: 99.3%
[3]; closed, 60° C., 1 w
  PXRD Result after storage: amorphous
[3]; closed, 60° C., 2 w
  PXRD Result after storage: amorphous
[3]; closed, 60° C., 4 w
  PXRD Result after storage: amorphous
[3]; closed, 80° C., 1 w
  PXRD Result after storage: amorphous
[3]; closed, 80° C., 2 w
  PXRD Result after storage: amorphous
[3]; closed, 80° C., 4 w
  PXRD Result after storage: amorphous
[3]; open, 25° C./~62% r.h., 1 w
  PXRD Result after storage: amorphous
[3]; open, 25° C./~62% r.h., 2 w
  PXRD Result after storage: amorphous
[3]; open, 25° C./~62% r.h., 4 w
  PXRD Result after storage: amorphous
[3]; open, 40° C./~75% r.h., 1 w
  PXRD Result after storage: amorphous
[3]; open, 40° C./~75% r.h., 2 w
  PXRD Result after storage: amorphous
[3]; open, 40° C./~75% r.h., 4 w
  PXRD Result after storage: amorphous
[4]
  DVS: hygroscopicity class: DVS: slightly hygroscopic; Δm = (mass increase <2% but ≧0.2%)
[4]; 0% r.h. to 95% r.h.
  DVS: total mass gain from 0% r.h. to 95% r.h.: mass gain of 2.1 wt.-% from 0%
[4]; 50%→85% r.h.
  DVS: Δm (50%→85% r.h.): +0.4% (50%→85% r.h.); total
[4]; DVS
  Δm (50%→85% r.h.): +0.4%
[4]; after DVS
  post-DVS Raman and/or PXRD: solid form: unchanged
[4]; mass gain at 85% r.h.
  Hygroscopicity classification (DVS): slightly hygroscopic (mass increase <2% but ≧0.2%)
[5]
  TG-FTIR: decomposition at T: decomposition at T > 290 °C
[5]; 1st scan
  DSC: Tg, 1st scan: DSC: 1st scan: Tg = 152.7 °C
[5]; 2nd scan
  DSC: Tg, 2nd scan: Tg = 149.7 °C (ΔCp = 0.45 J/g ° C.)
[5]; first or main loss, solvent and temperature range per sample as printed
  TG-FTIR: mass loss (solvent): TG-FTIR: loss of ~0.9 wt.-%
